# According to patent US20070093539A1, “N-hydroxy-4-(3-pheyl-5-methyl-isoxazole-4-yl)-benzenesulfonate solvates” (priority 2003, published 2007):
# Biological target: T1, Human recombinant COX-2 (Homo sapiens, UniProt P35354)
# T1 construct: purchased Cayman Chemical, Ann Arbor, USA 60122
# T1 sequence (P35354 18-604): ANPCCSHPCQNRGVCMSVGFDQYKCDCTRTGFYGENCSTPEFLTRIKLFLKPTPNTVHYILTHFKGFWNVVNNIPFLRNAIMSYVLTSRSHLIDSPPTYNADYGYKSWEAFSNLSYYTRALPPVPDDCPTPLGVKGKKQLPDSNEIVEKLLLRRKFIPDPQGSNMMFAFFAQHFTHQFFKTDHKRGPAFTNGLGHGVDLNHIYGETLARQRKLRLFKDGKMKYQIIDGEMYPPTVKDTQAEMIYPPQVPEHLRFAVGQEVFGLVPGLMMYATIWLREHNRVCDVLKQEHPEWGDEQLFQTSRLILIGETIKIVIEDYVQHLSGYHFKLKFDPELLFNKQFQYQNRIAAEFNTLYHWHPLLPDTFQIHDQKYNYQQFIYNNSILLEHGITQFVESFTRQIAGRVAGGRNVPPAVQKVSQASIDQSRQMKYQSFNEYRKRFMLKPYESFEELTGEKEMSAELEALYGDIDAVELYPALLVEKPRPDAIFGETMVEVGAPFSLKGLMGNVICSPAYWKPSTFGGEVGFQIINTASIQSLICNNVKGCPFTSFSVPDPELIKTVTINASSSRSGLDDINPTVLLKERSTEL
# Assay: spectrophotometric TMPD assay, COX-2
# Type: biochemical
# Conditions: 15 min preincubation at 25° C., read-out: Human recombinant COX-2 IC50 (μM) ± S.E.M.
# Description: The Human recombinant COX-2 and sheep COX-1 activity were determined by spectrophotometric TMPD assay (K. Gierse, S. D. Hauser, D. P. Creely, C. M. Koboldt, S. H. Rangwala, P. C. Isakson and K. Seibert: Expression and selective inhibition of the constitutive and inducible forms of human cyclo-oxygenase Biochem. J. 305: 479-484 (1995)).
# The Human recombinant COX-2 and sheep COX-1 activity were measured by spectrophotometric assay based on oxidation of N,N,N′,N′,-tetramethyl-p-phenylenediamine (TMPD). During the reduction of the prostaglandine G2 (PGG2) to prostaglandine endoperoxid H2 (PGH2), the TMPD is being oxidated to a colour product, which can be measured by spectrophotometer at 610 nm.
# 4 μl of solution of inhibitors in different concentrations was added to the 156 μl of reaction mixture (100 mM sodium phosphate buffer, pH:6.5, 1 μM hematin, 1 mg/ml gelatine). Afterwards 20 μl solution of 50 unit human recombinant COX-2 enzym or 20 μl of 50 unit sheep COX-1 enzym (Cayman Chemical, Ann Arbor, USA, cat no.: 60122/COX-2/, cat. no.: 60100/COX-1/) was added. The incubation mixture: was preincubated for 15 minutes at 25° C. in a spectrophotometric 96-well plate reader (Labsystem iEMS Reader MF). Following this, the mixture of 20 μl 1 mM arachidonic acid and 1 mM TMPD solution were added. It was shaken for 10 second and the absorbance was measured at 610 nm.
substance,measurement,value
N-hydroxi-4-(3-phenyl-5-methyl-isoxazole-4-yl)-benzenesulfonamide monohydrate [example 1],IC50,1.1 ± 0.3 µM
